Where “and” joins values, the source holds several entries; their conditions need not be identical. Identical values can stand only once.
Test system: 885724-159-R-J1-PDC KRAS PDC multicell spheroid viability
Assay: Anticancer human tumor 885724-159-R-J1-PDC patient-derived pancreatic adenocarcinoma cell line growth inhibition [KRAS2]
Conditions: for viability, T/C: stronger effect = lower value
Summary of the method: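 Combination screen of spheroid viability in tumor-cell co-cultures with endothelial (HUVEC) and mesenchymal stem cell stroma. Each agent was tested in half-log dilutions, topping at clinical Cmax or at 10 microM without a known Cmax.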

[1] = curve of first compound, second compound 0.1 µM
[2] = curve of first compound, second compound 0.316 µM
[3] = curve of first compound, second compound 1 µM
[4] = curve of first compound, second compound 3.16 µM
[5] = second compound 0.1 µM, first compound 0.0316 µM
[6] = second compound 0.1 µM, first compound 0.1 µM
[7] = second compound 0.1 µM, first compound 0.316 µM
[8] = second compound 0.1 µM, first compound 1 µM
[9] = second compound 0.1 µM, first compound 3.16 µM
[10] = second compound 0.1 µM, first compound 10 µM
[11] = second compound 0.316 µM, first compound 0.0316 µM
[12] = second compound 0.316 µM, first compound 0.1 µM
[13] = second compound 0.316 µM, first compound 0.316 µM
[14] = second compound 0.316 µM, first compound 1 µM
[15] = second compound 0.316 µM, first compound 3.16 µM
[16] = second compound 0.316 µM, first compound 10 µM
[17] = second compound 1 µM, first compound 0.0316 µM
[18] = second compound 1 µM, first compound 0.1 µM
[19] = second compound 1 µM, first compound 0.316 µM
[20] = second compound 1 µM, first compound 1 µM
[21] = second compound 1 µM, first compound 3.16 µM
[22] = second compound 1 µM, first compound 10 µM
[23] = second compound 3.16 µM, first compound 0.0316 µM
[24] = second compound 3.16 µM, first compound 0.1 µM
[25] = second compound 3.16 µM, first compound 0.316 µM
[26] = second compound 3.16 µM, first compound 1 µM
[27] = second compound 3.16 µM, first compound 3.16 µM
[28] = second compound 3.16 µM, first compound 10 µM
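Note: spheroids exposed to agents for 7 days before readout.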

For `O=C(c1cc(Cc2n[nH]c(=O)c3ccccc23)ccc1F)N1CCN(C(=O)C2CC2)CC1` + CC1OCC2(CCN(c3cnc(Sc4ccnc(N)c4Cl)c(N)n3)CC2)C1N, the IC50 [1] was greater than 10 µM, the IC50 [2] was greater than 10 µM and the IC50 [3] was greater than 10 µM. It also gave an IC50 [4] greater than 10 µM, an IC50 (curve of first compound, second compound 10 µM) greater than 10 µM and a viability, T/C [5] of 111%. It also gave a viability, T/C [6] of 113%, a viability, T/C [7] of 106% and a viability, T/C [8] of 104%. For the same compound, the viability, T/C [9] was 100%, the viability, T/C [10] was 95.8% and the viability, T/C [11] was 103%. The viability, T/C [12] was 109%, the viability, T/C [13] was 104% and the viability, T/C [14] was 103%. For the same compound, the viability, T/C [15] was 104%, the viability, T/C [16] was 89.6% and the viability, T/C [17] was 145%. For the same compound, the viability, T/C [18] was 149%, the viability, T/C [19] was 143% and the viability, T/C [20] was 137%. The viability, T/C [21] was 118%, the viability, T/C [22] was 104% and the viability, T/C [23] was 81%. The viability, T/C [24] was 90.4%, the viability, T/C [25] was 85.1% and the viability, T/C [26] was 86%. For the same compound, the viability, T/C [27] was 78.9%, the viability, T/C [28] was 77.6% and the viability, T/C (second compound 10 µM, first compound 0.0316 µM) was 78.3%. The viability, T/C (second compound 10 µM, first compound 0.1 µM) was 87.4%, the viability, T/C (second compound 10 µM, first compound 0.316 µM) was 132% and the viability, T/C (second compound 10 µM, first compound 1 µM) was 81%. The viability, T/C (second compound 10 µM, first compound 3.16 µM) was 70.7% and the viability, T/C (second compound 10 µM, first compound 10 µM) was 67.1%.
`CC(C)NCC(C(=O)N1CCN(c2ncnc3c2C(C)CC3O)CC1)c1ccc(Cl)cc1` (configuration not stated) + C=CC(=O)N1CCN(c2nc(OCC3CCCN3C)nc3c2CCN(c2cccc4cccc(C)c24)C3)CC1CC#N showed an IC50 (curve of first compound, second compound 0.0316 µM) greater than 10 µM, an IC50 [1] greater than 10 µM and an IC50 [2] greater than 10 µM. It also gave an IC50 [3] greater than 10 µM, an IC50 [4] of 0.0436 µM and a viability, T/C (second compound 0.0316 µM, first compound 0.0316 µM) of 84.5%. For the same compound, the viability, T/C (second compound 0.0316 µM, first compound 0.1 µM) was 83.1%, the viability, T/C (second compound 0.0316 µM, first compound 0.316 µM) was 81.1% and the viability, T/C (second compound 0.0316 µM, first compound 1 µM) was 75.4%. For the same compound, the viability, T/C (second compound 0.0316 µM, first compound 3.16 µM) was 75.6%, the viability, T/C (second compound 0.0316 µM, first compound 10 µM) was 62.5% and the viability, T/C [5] was 90.8%. For the same compound, the viability, T/C [6] was 79.2%, the viability, T/C [7] was 69.9% and the viability, T/C [8] was 65.9%. The viability, T/C [9] was 79%, the viability, T/C [10] was 56.9% and the viability, T/C [11] was 89.3%. For the same compound, the viability, T/C [12] was 74.3%, the viability, T/C [13] was 67.9% and the viability, T/C [14] was 68.9%. It also gave a viability, T/C [15] of 69.8%, a viability, T/C [16] of 57.2% and a viability, T/C [17] of 83.5%. For the same compound, the viability, T/C [18] was 72.5%, the viability, T/C [19] was 61.5% and the viability, T/C [20] was 58.7%. It also gave a viability, T/C [21] of 61.4%, a viability, T/C [22] of 48.3% and a viability, T/C [23] of 55.9%. For the same compound, the viability, T/C [24] was 37%, the viability, T/C [25] was 33.8% and the viability, T/C [26] was 26.8%. It also gave a viability, T/C [27] of 16.4% and a viability, T/C [28] of 6.38%.
`CC(=O)Nc1cccc(-n2c(=O)n(C3CC3)c(=O)c3c(Nc4ccc(I)cc4F)n(C)c(=O)c(C)c32)c1` was tested, and the viability, T/C (compound 0.0001 µM) was 89.6% [middle of 5 runs], the viability, T/C (compound 0.000316 µM) was 68.2% [middle of 5 runs] and the viability, T/C (compound 0.001 µM) was 49.6% [middle of 5 runs]. For the same compound, the viability, T/C (compound 0.00316 µM) was 36.5% [middle of 5 runs], the viability, T/C (compound 0.01 µM) was 25.7% [middle of 5 runs] and the viability, T/C (compound 0.0316 µM) was 18.6% [middle of 5 runs]. For the same compound, the IC50 (curve of compound) was 0.966 nM [middle of 5 runs].
For `CNCc1ccccc1-c1csc(C(C)Nc2nc(C)nc3cc(OC)c(OC)cc23)c1` (configuration not stated), the viability, T/C (compound 0.1 µM) was 101% [middle of 15 runs], the viability, T/C (compound 0.316 µM) was 101% [middle of 15 runs] and the viability, T/C (compound 10 µM) was 0.23% [middle of 13 runs]. The IC50 (compound alone, run of 08/26/2021) was 1.65 µM [middle of 5 runs] and the IC50 (compound alone, run of 09/02/2021) was 1.6 µM and 1.72 µM and 1.8 µM.
